Measured values as given in patent US9233984B2, “Compound, method for producing compound, and method for purifying compound” (Nippon Soda Co., Ltd., priority 2012, dated 2016).
Several values for one entry are separate records, joined by “and”; a condition that tells them apart may be missing. Identical values can stand only once.

Experiment: Isomerization reaction rate under irradiation with light (365 nm, high-pressure mercury lamp) of 1% by weight aqueous solutions
Type: physicochemical
Details: 1% by weight aqueous solution
Procedure: The reaction rates of the isomerization reaction were compared for the TZOX and TZOX-Na salt synthesized in Example 1. More specifically, 1% by weight aqueous solutions of each were prepared followed by irradiating these aqueous solutions with light (wavelength: 365 nm) for 3 hours using a high-pressure mercury lamp. A portion of the aqueous solutions were sampled prior to the start of irradiation with light (irradiation time: 0 hours) and at 1, 2 and 3 hours after the start of irradiation with light followed by an investigation of the abundance ratios of the (E) form and (Z) form. Although the abundance ratio of the (Z) form in the case of TZOX-Na prior to irradiation with light was only 0.33%, it increased to 34% after 1 hour had elapsed since the start of irradiation and remained essentially unchanged after that point. In other words, it was determined that the TZOX-Na salt reaches equilibrium as a result of being irradiated with light for 1 hour, and that the isomerization rate thereof is extremely fast. In contrast, in the case of TZOX, the abundance ratio of the (Z) form only finally reached 35% after 3 hours had elapsed since the start of irradiation, and it was determined that at least 2 hours are required to reach equilibrium.

[1] = irradiation time 0 hours (prior to irradiation)

Row | Irradiation time required to reach equilibrium of (E)/(Z) isomerization | Abundance Ratio (%) (E) form [1] | Abundance Ratio (%) (Z) form [1] | Abundance Ratio (%) (E) form (irradiation time 1 hour) | Abundance Ratio (%) (Z) form (irradiation time 1 hour) | Abundance Ratio (%) (E) form (irradiation time 2 hours) | Abundance Ratio (%) (Z) form (irradiation time 2 hours) | Abundance Ratio (%) (E) form (irradiation time 3 hours) | Abundance Ratio (%) (Z) form (irradiation time 3 hours) | Structure (SMILES)
1 | at least 2 hour | 99.52% | 0.45% | 83.99% | 13.7% | 70.39% | 28.13% | 62.8% | 35% and 35.3% | Cn1nnnc1C(=NO)c1ccccc1 [TZOX, (1-methyl-1H-tetrazol-5-yl)(phenyl)methanoneoxime]
2 | 1 h | 99.43% | 0.33% | 64.0% | 34% | 63.0% | 33.9% | 66.6% | 32.3% | Cn1nnnc1C(=N[O-])c1ccccc1.[Na+] [TZOX-Na]
